For test [1], the system named is Plutella xylostella. The test can be described thus: Reduction of oviposition in adult Plutella xylostella (diamondback moth) in cabbage leaves assessed as number of egg oviposited after 24 hr by no choice test. The format is functional, organism-based.
In test [2] the test system is Plutella xylostella. Put plainly: Reduction of oviposition in adult Plutella xylostella (diamondback moth) in cabbage leaves assessed as number of egg oviposited after 24 hr by two choice test. The format is functional, organism-based.
The test system of test [3] is Plutella xylostella. Put plainly: Insecticidal activity against third-instar of Plutella xylostella (diamondback moth) on cabbage leaves assessed as mortality after 5 days. The format is functional, organism-based.
The subject of test [4] is Plutella xylostella. The test can be described thus: Reduction of oviposition in adult Plutella xylostella (diamondback moth) in aluminium foil assessed as number of egg oviposited after 24 hr by two choice test. The format is functional, organism-based.
Test [5] relates to Plutella xylostella. The test can be described thus: Insecticidal activity against larvae of Plutella xylostella (diamondback moth) on cabbage leaves after 5 days. The format is functional, organism-based.
Test [6] deals with Plutella xylostella. Put plainly: Reduction of oviposition in adult Plutella xylostella (diamondback moth) in aluminium foil assessed as number of egg oviposited after 24 hr by no choice test. The format is functional, organism-based.
Test [7] deals with Plutella xylostella. The test can be described thus: Antifeedant activity against second-instar of Plutella xylostella (diamondback moth) on cabbage leaves assessed as leaf disks damage. The format is functional.
The test system of test [8] is Plutella xylostella. Put plainly: Antifeedant activity against larvae of Plutella xylostella (diamondback moth) on cabbage leaves assessed as weight of larvae after 5 days. The format is functional.
The subject of test [9] is Plutella xylostella. Put plainly: Insecticidal activity against Plutella xylostella (diamondback moth) eggs on cabbage leaves assessed as eggs developed to neonates after 5 days relative to control. The format is functional.
For test [10], the system named is Plutella xylostella. The test can be described thus: Antifeedant activity against fourth-instar of Plutella xylostella (diamondback moth) on cabbage leaves assessed as leaf disks damage. The format is functional.
Test [11] deals with Plutella xylostella. Put plainly: Antifeedant activity against third-instar of Plutella xylostella (diamondback moth) on cabbage leaves assessed as leaf disks damage. The format is functional.
Test [12] concerns Plutella xylostella. Put plainly: Antifeedant activity against larvae of Plutella xylostella (diamondback moth) on cabbage leaves assessed as length of larvae after 5 days. The format is functional.
Test [13] concerns Plutella xylostella. The test can be described thus: Antifeedant activity against larvae of Plutella xylostella (diamondback moth) on cabbage leaves assessed as diameter of larvae after 5 days. The format is functional.
Test [14] relates to Plutella xylostella. Put plainly: Antifeedant activity against neonates of Plutella xylostella (diamondback moth) on cabbage leaves assessed as leaf disks damage. The format is functional.
For test [15], the system named is Plutella xylostella. Put plainly: Insecticidal activity against third-instar of Plutella xylostella (diamondback moth) on cabbage leaves assessed as survival after 3 days. The format is functional.
The subject of test [16] is Plutella xylostella. Put plainly: Insecticidal activity against neonates of Plutella xylostella (diamondback moth) on cabbage leaves assessed as survival after 5 days. The format is functional.

Calls of active or inactive are those of the source. The rule behind the calls is not given here.

As to `C/C=C(\C)C(=O)O[C@H]1C[C@@H](OC(C)=O)[C@@]2(C(=O)OC)CO[C@H]3[C@@H](O)[C@@](C)([C@]45O[C@@]4(C)[C@@H]4C[C@H]5O[C@@H]5OC=C[C@@]54O)[C@H]4[C@]1(CO[C@]4(O)C(=O)OC)[C@@H]32` (stereo in doubt; form 3), the outcome in the test with Plutella xylostella [1], in the test with Plutella xylostella [2] and in the test on Plutella xylostella [6] was inactive. Moreover, the result in the test on Plutella xylostella [3], with Plutella xylostella [4] and with Plutella xylostella [5] was Active.

With `C/C=C(\C)C(=O)O[C@H]1C[C@@H](OC(C)=O)[C@@]2(C(=O)OC)CO[C@H]3[C@@H](O)[C@@](C)([C@]45O[C@@]4(C)[C@@H]4C[C@H]5O[C@@H]5OC=C[C@@]54O)[C@H]4[C@]1(CO[C@]4(O)C(=O)OC)[C@@H]32` (stereo in doubt; form 1), the result in the test on Plutella xylostella [1], with Plutella xylostella [2] and in the test with Plutella xylostella [6] was inactive. Moreover, the result in the test on Plutella xylostella [3], with Plutella xylostella [4] and in the test with Plutella xylostella [5] was Active.

Turning to `C/C=C(\C)C(=O)O[C@H]1C[C@@H](OC(C)=O)[C@@]2(C(=O)OC)CO[C@H]3[C@@H](O)[C@@](C)([C@]45O[C@@]4(C)[C@@H]4C[C@H]5O[C@@H]5OC=C[C@@]54O)[C@H]4[C@]1(CO[C@]4(O)C(=O)OC)[C@@H]32` (stereo in doubt; form 2), the outcome with Plutella xylostella [1], with Plutella xylostella [2] and with Plutella xylostella [6] was inactive. The outcome in the test with Plutella xylostella [3], with Plutella xylostella [4] and in the test on Plutella xylostella [5] was Active.

Turning to `C/C=C(\C)C(=O)O[C@H]1C[C@@H](OC(C)=O)[C@@]2(C(=O)OC)CO[C@H]3[C@@H](O)[C@@](C)([C@]45O[C@@]4(C)[C@@H]4C[C@H]5O[C@@H]5OC=C[C@@]54O)[C@H]4[C@]1(CO[C@]4(O)C(=O)OC)[C@@H]32` (stereo in doubt; form 1) [AZADIRACHTIN A], the Activity worked out at 2.1% in the test on Plutella xylostella [7]; 0.013 mg in the test with Plutella xylostella [8]; 75.2% in the test on Plutella xylostella [9]; 10.1% in the test with Plutella xylostella [10]; 5.1% with Plutella xylostella [11]; 13.5 mm in the test with Plutella xylostella [12]. The Activity in the test with Plutella xylostella [13] is recorded as 2 mm; in the test with Plutella xylostella [14], “<=2%”.

On to `C/C=C(\C)C(=O)O[C@H]1C[C@@H](OC(C)=O)[C@@]2(C(=O)OC)CO[C@H]3[C@@H](O)[C@@](C)([C@]45O[C@@]4(C)[C@@H]4C[C@H]5O[C@@H]5OC=C[C@@]54O)[C@H]4[C@]1(CO[C@]4(O)C(=O)OC)[C@@H]32` (stereo in doubt; form 3) [AZADIRACHTIN A], for which the Activity with Plutella xylostella [8] turned out to be 0.016 mg; in the test with Plutella xylostella [9] it was 61.6%; with Plutella xylostella [12] it was 14.8 mm; in the test with Plutella xylostella [13], 2.2 mm. Moreover, the Survival in the test with Plutella xylostella [15] was less than 60%; in the test with Plutella xylostella [16], 50%.

For `C/C=C(\C)C(=O)O[C@H]1C[C@@H](OC(C)=O)[C@@]2(C(=O)OC)CO[C@H]3[C@@H](O)[C@@](C)([C@]45O[C@@]4(C)[C@@H]4C[C@H]5O[C@@H]5OC=C[C@@]54O)[C@H]4[C@]1(CO[C@]4(O)C(=O)OC)[C@@H]32` (stereo in doubt; form 2) [AZADIRACHTIN A], the Activity amounted to 0.012 mg in the test with Plutella xylostella [8], 66.2% in the test with Plutella xylostella [9], 14.7 mm in the test with Plutella xylostella [12] and 2.5 mm with Plutella xylostella [13].
